How the values were obtained:
[1] = target: T1, C4760 DNA polymerase (a variant of DPO4) (Saccharolobus solfataricus, UniProt Q97W02, A155G/A42V/D156R/D292Y/D294N/E291S/E324K/E325K/E327K/E63R/E79L/G187P/G299W/I153V/I189F/I248T/I295S/K152A/K317Q/K321Q/K56Y/K78D/L293W/M76W/N188Y/P184Q/Q82W/Q83G/R300S/S297Y/S86E/T290K/T301W/V289W/V296Q); experiment: Primer extension assays using a 411mer amplicon template; assay type: biochemical, Sulfolobus solfataricus; details: comparator compound 14 (lane 1)
T1 construct: made in house
Method: PEM activity of compound 15 was tested in primer extension assays using a 411mer amplicon template. Primer extension reactions included the following reagents: 50 mM TrisCl, 200 mM NH4OAc, 20% PEG8K, 5% NMS, 3 nmol PP-60.20, 2 mM MnCl2, 2 μg Kod single-strand binding protein (SSB), 1 M urea, 250 pmol each XNTP, 1 pmol template, 1 pmol oligonucleotide primer, 1.2 μg purified recombinant C4760 DNA polymerase (a variant of DPO4, see SEQ ID NO:2), and 2 (lane 2) or 3 (lane 3) mM PEM. 10 μL primer extension reactions were run for 20 minutes at 37° C. and reaction products were analyzed by gel electrophoresis. A representative gel showing primer extension products is presented in FIG. 12 (the position of a 277mer is indicated by the arrow). […] Remarkably, the polymerase is completely dependent upon the addition of PEM to the reaction in order to be capable of synthesizing these lengthy Xpandomer products. Even longer extension products may be obtained by optimizing various reaction parameters, e.g., extension time and/or concentrations of various additives.
PEM activity of compound 19, was tested in primer extension assays using the 411 mer amplicon template. […] 10 μL primer extension reactions were run for 30 minutes at 37° C. and reaction products were analyzed by gel electrophoresis. […]

C4552 DNA polymerase = target: T2, C4552 DNA polymerase (Saccharolobus solfataricus, UniProt Q97W02, A155G/A42V/D156R/D292Y/D294N/E291S/E324K/E325K/E327K/E79L/G187P/G299W/I153V/I189F/I248T/I295S/K152A/K317Q/K321Q/K56Y/K78D/L293W/M76W/N188Y/P184Q/Q82W/Q83G/R300S/S297Y/S86E/T290K/T301W/V289W/V296Q); experiment: Primer extension assays using three 100mer templates derived from HIV1, 2 and 3 genomes; assay type: biochemical, Sulfolobus solfataricus; details: 0.5 mM PEM; HIV1, HIV2, HIV3 100mer templates; 30 minutes at 23° C.; FIG. 9
T2 construct: made in house
Method: PEM activity of compounds 9-11 was tested in primer extension assays using three 100mer templates, derived from the HIV1, 2, and 3 genomes. Primer extension reactions included the following reagents: 75 mM TrisCl, pH 8.44, 175 mM NH4OAc, 20% PEG8K, 5% NMS, 0.8 nmol PP-60.20, 0.6 mM MnCl2, 2.3 μg Tth single-strand binding protein (SSB), 0.5 M or 1 M urea, 200 pmol each XNTP, 1.1 pmol template, 1 pmol oligonucleotide primer, 1.2 μg purified recombinant C4552 DNA polymerase, and 0.5 mM PEM. 10 μL primer extension reactions were run for 30 minutes at 23° C. and reaction products were analyzed by gel electrophoresis.

[2] = target: T3, C4552 (variant of DPO4 DNA polymerase) (Saccharolobus solfataricus, UniProt Q97W02, A155G/A42V/D156R/D292Y/D294N/E291S/E324K/E325K/E327K/E79L/G187P/G299W/I153V/I189F/I248T/I295S/K152A/K317Q/K321Q/K56Y/K78D/L293W/M76W/N188Y/P184Q/Q82W/Q83G/R300S/S297Y/S86E/T290K/T301W/V289W/V296Q); experiment: XNTP polymerization reactions on longer templates (88, 127, 227, 277 nucleotides); assay type: biochemical, Sulfolobus solfataricus; details: 1 mM compound; templates of 88, 127, 227 and 277 nucleotides; 3 or 4 nmol PP-60.20; 1-2 hr at 23° C.; FIG. 8
T3 construct: made in house
Method: Following the success of accurately replicating templates of up to 80 nucleotides in length into Xpandomers, XNTP polymerization reactions were conducted using four longer templates, consisting of 88, 127, 227, and 277 nucleotides in length. A variant of DPO4 DNA polymerase, referred to as C4552 (SEQ ID NO:1), was used in these polymerization reactions and reaction conditions were optimized for C4552 activity in the presence of PEM compound 1. Other suitable DPO4 polymerase variants include, but are not limited to, those of SEQ ID NO:2, SEQ ID NO:3, SEQ ID NO:4, and SEQ ID NO:5. In addition to 1 mM compound 1, reaction additives included 1 mM urea and 2.75 μg single-strand binding protein (Eco SSB). Extension reactions were carried out with 0.85 pmol template, 0.5 pmol oligonucleotide primer, and 1 nmol each XNTP in a final volume of 10 μL. Reactions were run in buffer composed of 50 mM TrisCl, pH 8.84, 200 mM NH4OAc, and 20% PEG8K supplemented with 5% NMS, polyphosphate PP-60.20 in amounts of 3 or 4 nmol, and 2 mM MnCl2. 1.2 μg purified recombinant DNA polymerase protein was used in each extension reaction and reactions were run for 1-2 hr at 23° C. […] Lanes 1-5 and 6-10 represent identical extension reactions with the exception of the amount of PP-60.20 additive, which was 3 nmol in lanes 1-5 and 4 nmol in lanes 6-10.

DNA polymerase [3] = experiment: Sequencing by Expansion (SBX) of primer extension products, nanopore sequence reads aligned to template; assay type: biochemical
Method: To investigate the accuracy of PEM-dependent enhancement of XNTP polymerization, primer extension products were sequenced using the SBX protocol. Briefly, the constrained Xpandomer products of XNTP polymerization are cleaved to generate linearized Xpandomers. This is accomplished by first quenching the extension reaction with a solution containing 100 mM EDTA, 2 mM THPTA, and 2% Tween-20. Then the sample is subjected to amine modification with a solution of 1 M NaHCO3 and 1 M succinic anhydride in DMF. Cleavage of the phosphoramidate bonds is carried out with 37% HCl and linearized Xpandomers are purified with QIAquick columns (QIAGEN, Inc.).
For sequencing, protein nanopores are prepared by inserting α-hemolysin into a DPhPE/hexadecane bilayer member in buffer B1, containing 2 M NH4Cl and 100 mM HEPES, pH 7.4. The cis well is perfused with buffer B2, containing 0.4 M NH4Cl, 0.6 M GuCl, and 100 mM HEPES, pH 7.4. The Xpandomer sample is heated to 70° C. for 2 minutes, cooled completely, then a 2 μL sample is added to the cis well. A voltage pulse of 90 mV/390 mV/10 μs is then applied and data is acquired via Labview acquisition software.
Sequence data is analyzed by histogram display of the population of sequence reads from a single SBX reaction. […] Representative histograms of SBX sequencing of a 45mer template are presented in FIG. 6A (no additive control) and FIG. 6B (SBX in the presence of PEM compound 1).

DNA polymerase [4] = experiment: Screen of PEMs for enhancement of XNTP polymerization (primer extension, gel electrophoresis); assay type: biochemical; details: FIG. 4 gel; 45 mer template; without PEM additive up to only around 14 XNTPs
Method: A representative primer extension reaction may include the following reagents: 2 pmol primer, 2.2 pmol 45 mer oligonucleotide template, 50 pmol of each XNTP (XATP, XCTP, XGTP, and XTTP), 50 mM Tris HCl, pH 6.79, 200 mM NaCl, 20% PEG, 5% NMS, 0.5 nmol polyphosphate 60.19, 0.3 mM MnCl2, and 0.6 μg of purified recombinant DNA polymerase protein. Reactions may be run for 1 hr at 23° C. Reaction products (i.e., constrained Xpandomers) are treated to cleave the phosphoramidate bonds, thereby generating linearized Xpandomers. Reaction products may be analyzed using gel electrophoresis on 4-12% acrylamide gels to resolve and visualize Xpandomer products of different lengths. For the PEM screen described above, PEMs were typically tested in the micro to millimolar range.
Again, this PEM activity is specific for compound 2, as other unrelated aromatic compounds had no effect (lanes 2-7).

T2 sequence (Q97W02 other isoform, or with tags, fused parts or gaps with the stated changes): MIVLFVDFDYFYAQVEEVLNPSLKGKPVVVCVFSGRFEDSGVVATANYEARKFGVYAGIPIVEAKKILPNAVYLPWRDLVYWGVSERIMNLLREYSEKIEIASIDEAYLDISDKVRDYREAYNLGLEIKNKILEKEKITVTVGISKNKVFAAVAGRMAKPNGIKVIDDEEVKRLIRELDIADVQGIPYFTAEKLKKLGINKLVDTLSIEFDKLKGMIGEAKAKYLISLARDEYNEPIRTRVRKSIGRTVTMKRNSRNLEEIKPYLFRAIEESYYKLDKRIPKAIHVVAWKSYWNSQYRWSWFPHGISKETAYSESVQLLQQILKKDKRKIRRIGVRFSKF
T1 sequence (Q97W02 other isoform, or with tags, fused parts or gaps with the stated changes): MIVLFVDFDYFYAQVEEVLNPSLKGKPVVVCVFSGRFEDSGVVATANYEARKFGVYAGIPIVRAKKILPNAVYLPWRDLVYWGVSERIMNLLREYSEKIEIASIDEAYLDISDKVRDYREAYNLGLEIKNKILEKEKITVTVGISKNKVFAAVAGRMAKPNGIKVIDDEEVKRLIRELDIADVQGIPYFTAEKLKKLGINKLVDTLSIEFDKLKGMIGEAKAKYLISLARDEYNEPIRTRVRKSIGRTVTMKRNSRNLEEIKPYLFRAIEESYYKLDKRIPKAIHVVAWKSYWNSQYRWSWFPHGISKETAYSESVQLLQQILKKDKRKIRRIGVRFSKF

Compound: NC(=O)c1cc(-c2cn(-c3ccc(C(=O)O)c(O)c3)nn2)nc(-c2cn(-c3ccc(C(=O)O)c(O)c3)nn2)c1 [Compound 19, 4,4′-((4-carbamoylpyridine-2,6-diyl)bis(1H-1,2,3-triazole-4,1-diyl))bis(2-hydroxybenzoic acid)]
- PEM activity: polymerization of XNTPs into Xpandomer copies of the 411 mer template ([1]; 0.5, 1, or 1.5 mM PEM, 0.5 pmol template, 30 minutes at 37° C., FIG. 14): enables polymerization of XNTPs into lengthy Xpandomer copies of the 411 mer template, albeit in a manner less efficient than that of compound 14

Compound: O=C(O)c1ccc(-n2cc(-c3cc([N+](=O)[O-])cc(-c4cn(-c5ccc(C(=O)O)c(O)c5)nn4)n3)nn2)cc1O [Compound 11, 4,4′-((4-nitropyridine-2,6-diyl)bis(1H-1,2,3-triazole-4,1-diyl))bis(2-hydroxybenzoic acid)]
- PEM activity: polymerization of XNTPs into Xpandomer copies of 100 mer templates (C4552 DNA polymerase): enable XNTP polymerization at least as efficiently as compound 1

Compound: CCOC(=O)c1cc(-c2cn(-c3ccc(O)c(C(=O)O)c3)nn2)nc(-c2cn(-c3ccc(O)c(C(=O)O)c3)nn2)c1 [Compound 15, 5,5′-((4-(ethoxycarbonyl)pyridine-2,6-diyl)bis(1H-1,2,3-triazole-4,1-diyl))bis(2-hydroxybenzoic acid)]
- PEM activity: polymerization of XNTPs into Xpandomer copies of the 411 mer template ([1]; 2 or 3 mM PEM, 1 pmol template, 20 minutes at 37° C., FIG. 12): enables polymerization of XNTPs into lengthy Xpandomer copies of the 411 mer template in a manner comparable to that of compound 14

Compound: COc1cc(-c2cn(-c3ccc(C(=O)O)c(O)c3)nn2)nc(-c2cn(-c3ccc(C(=O)O)c(O)c3)nn2)c1 [Compound 9, 4,4′-((4-methoxypyridine-2,6-diyl)bis(1H-1,2,3-triazole-4,1-diyl))bis(2-hydroxybenzoic acid)]
- PEM activity: polymerization of XNTPs into Xpandomer copies of 100 mer templates (C4552 DNA polymerase): enable XNTP polymerization at least as efficiently as compound 1

Compound: O=C(O)c1ccc(-n2cc(-c3cccc(-c4cn(-c5ccc(C(=O)O)c(O)c5)nn4)n3)nn2)cc1O [Compound 1, 4,4′-(pyridine-2,6-diylbis(1H-1,2,3-triazole-4,1-diyl))bis(2-hydroxybenzoic acid)]
- polymerization of XNTPs into Xpandomer copies of longer templates [2]: generate complete Xpandomer copies of each longer template
- accuracy of SBX sequence reads (DNA polymerase [3]; 45mer template, FIG. 6B, without additive reads not accurate past around base 18): increased the accuracy of the sequence reads across the entire length of the 45 mer template
- accuracy of SBX sequence reads (DNA polymerase [3]; 60 mer template, FIG. 7A): enabled accurate sequence reads completely to the end of each of these longer templates
- accuracy of SBX sequence reads (DNA polymerase [3]; 80 mer template, FIG. 7B): enabled accurate sequence reads completely to the end of each of these longer templates
- DNA polymerase-mediated primer extension with XNTPs (length of extension products) (DNA polymerase [4]): enables the polymerase to synthesize considerably longer extension products
- PEM activity: polymerization of XNTPs into Xpandomer copies of 100 mer templates (C4552 DNA polymerase): enables polymerization of XNTPs into full length Xpandomer copies of the three different 100 mer templates
